The text below walks through data of a melting point compilation (Tetko et al.; mined from patent text by program, amines drawn as free bases though some values may be those of a salt).

For orientation: melting point means the temperature, or range, at which the solid turns liquid.

Each structure is given as a SMILES string.

Regarding `CC(OC(=O)c1cc(-n2c(=O)cc(C(F)(F)F)n(C)c2=O)ccc1Cl)C1CC1` (stereo not given), the melting point was in the range of 118 to 119 °C.

`CN(C)C(=O)CN1CCC(c2ccc(Nc3nc4c(-c5ccc[nH]c5=O)cccn4n3)cc2)CC1` displayed a melting point above 250 °C.

As for `COc1cc(C=O)ccc1OC(=O)NCCc1ccccc1`, the melting point lay within 133 to 138 °C.

On to `Fc1ccc(CNc2nc3ccccc3n2-c2ccc(F)c(F)c2)cc1F`, for which the melting point was in the range of 158 to 160 °C.

With `CC(=O)C(CCC#N)(CCC#N)C(C)=O`, the melting point fell in the range of 185 to 186 °C.

Compound `CCCCc1nc(SCCO)c(C(=O)O)n1Cc1ccc(-c2ccccc2C(=O)O)cc1` had a melting point of 194 °C.

Turning to `Cc1ccc(C(O[Si](C)(C)C(C)(C)C)C(=O)NCCO)cc1` (stereo not given), the melting point is 69 to 70 °C.

On to `Cn1c(=O)c2nc(-c3ccc(/C=C/C(=O)O)cc3)[nH]c2n(C)c1=O`, for which the melting point lay within 299 to 301 °C.

Consider `Cn1c(=O)n(C2CCNCC2)c2ccc(Cl)cc21`, for which the melting point amounted to 201 °C.

For the compound `CN1C(=O)CC[C@H]1COc1cccnc1`, the melting point lay within 73 to 74 °C.

`CCCCOc1ccc(S(=O)(=O)C2(C(=O)NO)CCN(Cc3cccc(OC)c3)CC2)cc1` had a melting point of 137 °C.

As for `N#CSc1nc(C(F)(F)C(F)F)nc2ccccc12`, the melting point fell in the range of 112 to 114 °C.

Regarding `CCCOc1ccccc1C(=O)Nc1cccnc1C(N)=O`, the melting point was 116 to 118 °C.

The compound `COc1nscc1C#N` gave a melting point of 60 to 62 °C.

The compound `Oc1cccnc1CC1(O)CN2CCC1CC2` (stereo not given) yielded a melting point of 270 to 272 °C.

Regarding `CC1COc2c(C3CC3)c(F)cc3c(=O)c(C(=O)O)cn1c23` (stereo not given), the melting point was 263 to 265 °C.

`O=C1N=c2ccc(C3(c4nc5ccc(-c6ccccc6)cc5[nH]4)N=c4ccccc4=N3)cc2=NC1=O`: the melting point is above 280 °C.

In turn, `Cc1ccccc1C(=O)Nc1ncc([N+](=O)[O-])s1` came in with a melting point of 228 to 230 °C.

The compound `COc1cc(Nc2c(C#N)cnc3cc4cc(OCCN5CCN(C)CC5)c(OC)cc4cc23)c(Cl)cc1F` gave a melting point of 197 to 205 °C.

The compound `O=C(O)c1ccccc1Nc1c(O)ccc2ccccc12` had a melting point of 214 to 217 °C.

Regarding `COc1ccccc1C(CO)c1c[nH]c2c(=O)[nH]c(N)nc12` (stereo not given), the melting point lay within 262 to 265 °C.

On to `O=CN1CCC(O)(c2ccccc2Cc2ccccc2)CC1`, for which the melting point lay within 171 to 174 °C.

With `O=C(C(=O)c1ccc([N+](=O)[O-])cc1)c1ccc([N+](=O)[O-])cc1`, the melting point fell in the range of 211 to 212 °C.

For `Cc1ccc(C2c3c(C)c(Br)c(C)c(C4OCCO4)c3OC2(C)C)cc1` (stereo not given), the melting point lay in the range of 169 to 172 °C.

`Cc1cc(S(F)(F)(F)(F)F)ccc1C(=O)O` yielded a melting point of 138 to 139 °C.

Compound `CCc1ccc(CC2N=C(c3ccc(F)cc3)c3cc(Cl)ccc3NC2=O)cc1CC` (stereo not given) displayed a melting point of 88 to 90 °C.

`COC(C)(C)C(C#N)=NO` returned a melting point of 102 to 104 °C.

For the compound `COc1cccc2c1OC(CO)CN2C(=O)OC(C)(C)C` (stereo not given), the melting point is 65 to 68 °C.

In the case of `CCCCOc1nc2cc(C)nn2c2c1cnc1c2cnn1CC`, the melting point was 103 to 104 °C.

In turn, `CC(C)NNC(=O)c1ccc(Cl)c(Cl)c1` yielded a melting point of 112 to 115 °C.

In turn, `Nc1cnc2cc(F)c(F)cc2c1` gave a melting point of 155 °C.

Compound `Cc1csc(-c2ccc3c(c2)c2cc(-c4ccc(Cl)cc4Cl)c(=O)n(C)c2n3C)n1` yielded a melting point of 255 to 257 °C.

Compound `CCCc1c(OCCCCCOc2ccc3c(c2CCC)OC(C(=O)OCC)CC3=O)ccc(C(C)=O)c1O` (stereo not given) came in with a melting point of 80 to 81 °C.

The compound `Cc1nc(N)n(C)c(=O)c1CCN1CCN(c2noc3ccccc23)CC1` showed a melting point of 201 °C.

The compound `O=C1NC2(CCCC2)CCCC1(Cl)Cl` came in with a melting point of 114 to 120 °C.

`NC(CC1CCCCC1)C(O)C(O)C1CC1` (stereo not given) displayed a melting point of 141 to 142 °C.

On to `Fc1ccc2c(c1)nc(/C=C/c1ccoc1)n2-c1ccccn1`, for which the melting point was 168 to 170 °C.

In turn, `O=C(O)c1ccccc1C(=O)C=Cc1cc(O)c(O)c([N+](=O)[O-])c1` returned a melting point of 178 to 180 °C.

On to `COc1cc(C(=O)n2c3c(c4ccccc42)CC(C(=O)O)(C(=O)O)CC3)cc(OC)c1OC`, for which the melting point turned out to be 208 °C.

Compound `COc1ccc2oc3ccc(I)cc3c2c1C(=O)Nc1cccnc1` returned a melting point of 286 to 287 °C.

As for `O=C(O)CC1(O)CCC(N2CCN(CCNc3ccncc3)CC2)CC1` (stereo not given), the melting point is 238 to 240 °C.

For the compound `NC(=O)CCCC(=O)NCCS`, the melting point was determined as 127 °C.

On to `Cc1nn(C)c2c1N=C(C(C)C)N1CC(C)N=C21` (stereo not given), for which the melting point was 96 to 97 °C.

In turn, `COC(=O)c1cc(Cl)c(I)cc1OC` registered a melting point of 72 to 73 °C.

`CN1C(=O)CCCc2cc(Nc3ncc(Cl)c(Nc4ccccc4C(=O)NCCO)n3)ccc21` yielded a melting point of 190 to 194 °C.

Compound `COc1cc([N+](=O)[O-])c2c3c(c4ccccc4nc13)C=CN2` came in with a melting point of 220 to 223 °C.

On to `CN(C)C=Nc1c(Cl)cc(N=Cc2c(Cl)cccc2Cl)cc1Cl`, for which the melting point lay in the range of 84 to 86 °C.

For `CCCCn1c(=O)cc(-c2ccc(NCCO)cc2)[nH]c1=O`, the melting point was 207 to 208 °C.

For the compound `Clc1c2c(nc3ccc(C4CCCCC4)cc13)CCCC2`, the melting point lay in the range of 89 to 91 °C.

Compound `Cc1nc(NN)c2c(n1)NC(=O)CO2` yielded a melting point of 262 to 264 °C.

Turning to `CCC(=O)c1ccc(-c2ccccc2)cc1`, the melting point was in the range of 98 to 99 °C.

Regarding `CCCC(=O)NCc1ccc(C(=O)O)cc1`, the melting point lay in the range of 186 to 188 °C.

For the compound `O=C1NC(=O)C(S(=O)(=O)c2ccc(Br)cc2)S1` (stereo not given), the melting point was 156 to 158 °C.

Consider `COc1cc(OC)cc(C(=O)NCC(=O)N2c3ccccc3N(Cc3ccccc3)C(=O)[C@H]3CCC[C@H]32)c1` (relative stereo), for which the melting point was 113 to 115 °C.

Compound `CCOCC1=C(C(=O)OCC)C(c2ccc(OC)c(F)c2)C(C(=O)OCC)=C(C)N1` (stereo not given) registered a melting point of 120 °C.

Take `CCCNC(=O)c1ccc(CCCc2cc(S(C)(=O)=O)ccc2OCc2ccccc2)cc1`: the melting point worked out at 121 °C.

`CCOC(=O)CSCc1cccc(-c2c(CC(=O)Nc3ccc(F)cc3C(F)(F)F)c(=O)oc3cc(Cl)c(C)cc23)c1` gave a melting point of 106 to 108 °C.

As for `COc1cc(C=CC(=O)c2c(OCC=C(C)C)ccc3c(=O)c4ccccc4oc23)cc(OC)c1OC`, the melting point is 153 to 155 °C.

Take `CCN1C(=O)C(=O)N(c2cc(F)ccc2C)C1=S`: the melting point was in the range of 152 to 153 °C.

For the compound `C=CCOc1ccc2cn[nH]c2c1`, the melting point is 110 to 112 °C.

As to `Cc1ccc2ccccc2c1C(=O)/C=C/c1ncn(C(c2ccccc2)(c2ccccc2)c2ccccc2)c1C`, the melting point was in the range of 222 to 224 °C.

`NC(=O)c1sc2ncnc(-c3cc4c(c(OCc5ccccc5)c3)CCO4)c2c1N` gave a melting point of 239 °C.

`CC(C)OCC(C)Oc1ccc(COc2cnn(C(C)(C)C)c(=O)c2Cl)cc1` (stereo not given): the melting point fell in the range of 60 to 62 °C.

In the case of `CSc1nc2ccc(Br)cc2c(=O)[nH]1`, the melting point was determined as 230 °C.

`CCCCCCCCNC(=O)ON=C(Cc1ccccc1)C1=CC(=O)C(C)(C)O1` gave a melting point of 67 to 68 °C.

Consider `CS(=O)(=O)c1ccc(-c2c(-c3ccc(F)cc3)c(OCC(=O)c3ccccc3)nn2CC(=O)c2ccccc2)cc1`, for which the melting point was 151 to 152 °C.

`N#Cc1cccc(NCC(=O)N2CCC(Cc3ccc(F)cc3)CC2)c1`: the melting point is 138 to 142 °C.

With `Cn1c(=O)[nH]c2ccc(-c3cccc([N+](=O)[O-])c3)cc21`, the melting point fell in the range of 264 to 265 °C.

`CCOC(=O)C1=C(C)NC(C)=C(C(=O)OCCN2CCN(C(c3ccc(C)cc3)c3ccc(C)cc3)CC2)C1c1ccc(C#N)cc1` (stereo not given) showed a melting point of 93 to 96 °C.

In turn, `COc1ccc2c(c1)C(=O)C(=CCC(=O)OC(C)(C)C)CC2` showed a melting point of 76 °C.

`S=C=Nc1ccc2oc(-c3ccc(CN4CCOCC4)s3)nc2c1` displayed a melting point of 135 to 138 °C.

`CCCCNc1cc(CN(Cc2ccccc2)C(=O)c2ccccc2)cc(S(N)(=O)=O)c1Oc1ccccc1` yielded a melting point of 137 to 138 °C.

Regarding `O=c1[nH]c2cccnc2c2nc(-c3ccccc3)cn12`, the melting point lay within 329 to 330 °C.

In turn, `CCOc1ccc(-c2c(Cl)c(CN3C(=O)CCC3=O)nc3sc4c(c23)CCNC4)cc1` came in with a melting point of 215 to 217 °C.

`O=C1NC(=O)C(Nc2ccc(CCNC[C@H](O)COc3ccc(Oc4ccccc4)cc3)cc2)S1` (stereo not given in full) came in with a melting point of 72 to 74 °C.

In turn, `O=C(O)c1ccc(NCCCc2ccccc2)cc1` showed a melting point of 162 to 163 °C.

Compound `CCn1c(=O)n(CC)c2cc3c(N4CCN(C(=O)Nc5ccc(Oc6ccccc6)cc5)CC4)ncnc3cc21` yielded a melting point of 168 to 169 °C.

In turn, `Cc1ccc(Cl)c(Nc2ccccc2-c2n[nH]c(=S)[nH]2)c1Cl` gave a melting point of 300 to 305 °C.

Regarding `CCOC(=O)C1Cc2ccc(NC(=O)OCc3ccccc3)cc2NC1=O` (stereo not given), the melting point was in the range of 187 to 189 °C.

In turn, `O=C1OC(COc2ccccc2)CN1CCO` (stereo not given) gave a melting point of 89 to 91 °C.

Take `COC(=O)c1cc(C(=O)c2ncc3ccccn23)ccc1[N+](=O)[O-]`: the melting point was 151 °C.

Consider `CC(C)S(=O)(=O)c1cnc(Cl)c(Cl)c1`, for which the melting point turned out to be 146 °C.

For `CC(C)(O)CNc1c([N+](=O)[O-])cnc2cccnc12`, the melting point was in the range of 184 to 186 °C.

Regarding `Cc1cc(C)c(S(=O)(=O)n2c(CCC(=O)O)cc3cc(Cl)ccc32)c(C)c1`, the melting point lay in the range of 132 to 134 °C.

Compound `COCCNc1cc(C)n(COC)c(=O)c1[N+](=O)[O-]` registered a melting point of 172 to 173 °C.

On to `CC(C)(C(=O)O)N1COC(C(F)F)=C(c2ccccc2)C1=O`, for which the melting point was in the range of 149 to 151 °C.

In turn, `COc1ccc(-c2coc3ccc(-c4nnc(SC)o4)cc23)cc1` showed a melting point of 156 to 157 °C.

`COc1cc(C=C(Br)Br)ccc1OC(C)C` returned a melting point of 36 to 38 °C.

For `CCOc1nn(-c2ccc(C(F)(F)F)cc2)cc1CCCOc1cccc(CC(=O)O)c1`, the melting point lay in the range of 108 to 109 °C.

`Cc1c(C(=O)Nc2ccc(N(CCO)CCO)c(C#N)c2)c2cc(F)ccc2n1CC(=O)O` yielded a melting point of 150 to 153 °C.
